The values below come from patent publication US10561655B2 (SYNBLia Therapeutics, Inc., priority 2018, dated 2020).

One experiment concerns cells. Nature of the experiment: Cell Proliferation Assay (CellTiter Glo). Particulars: 3-5 days incubation, CellTiter Glo; read-out: IC50. Format: cell-based. The method, then: Firstly, the cells were seeded in 384-well cell culture plate and incubate overnight. The test compounds were added to the cell plate and incubated for 3-5 days. The cell plate was then detected using CellTiter Glo reagents.

In a further experiment the test system is p-ERK/total ERK. The experiment in a line: p-ERK/total ERK Cellular Assay. Type of experiment: cell-based. Particulars: p-ERK (AlphaLISA SureFire Ultra) / total ERK (HTRF), 2-6 hours incubation; read-out: IC50. The method, then:
p-ERK/total ERK Cellular Assay
Cells were seeded in 384-well cell culture plate and incubated overnight. Test compounds were added to the cell plate and the plate was incubated for 2-6 hours. To detect p-ERK, the cell plate was used AlphaLISA SureFire Ultra p-ERK kit; to detect total ERK, the cell plate was used total ERK HTRF kit. The plate was read on the Envision.

The next experiment addresses Full length SHP2 enzyme (Homo sapiens (Human), UniProt Q06124). Nature of the experiment: SHP2 Phosphatase Assays. To be noted: full length SHP2 0.1 nM, 1 uM IRS-1 peptide, DiFMUP substrate, room temperature. Format: biochemical. The protocol: IC50 values were determined at room temperature in 384-well black polystyrene plate, using a final reaction volume of 15 μl and the following assay buffer conditions: 60 mM Hepes (pH=7.2), 75 mM NaCl, 75 mM KCl, and 1 mM EDTA, 0.05% P-20, 5 mM dithiothreitol (DTT). Full length SHP2 enzyme (diluted to 0.1 nM in reaction buffer) were co-incubated with 1 uM IRS-1 peptide and 0.01 nM to 10 μM compounds of the disclosure for 60 min. The surrogate substrate DiFMUP (5 μL, […]) was added, and incubated at rt for 60 min. The reaction was then quenched by the addition of 5 μL of a 40 μM solution of bpV(Phen). The fluorescence signal was monitored using a microplate reader (Envision, Perkin-Elmer) using excitation and emission wavelengths of 360 nm and 450 nm, respectively. The inhibitor dose-response curves were analyzed using normalized IC50 regression curve fitting with control-based normalization.

Chain of Full length SHP2 enzyme (Q06124 whole entry): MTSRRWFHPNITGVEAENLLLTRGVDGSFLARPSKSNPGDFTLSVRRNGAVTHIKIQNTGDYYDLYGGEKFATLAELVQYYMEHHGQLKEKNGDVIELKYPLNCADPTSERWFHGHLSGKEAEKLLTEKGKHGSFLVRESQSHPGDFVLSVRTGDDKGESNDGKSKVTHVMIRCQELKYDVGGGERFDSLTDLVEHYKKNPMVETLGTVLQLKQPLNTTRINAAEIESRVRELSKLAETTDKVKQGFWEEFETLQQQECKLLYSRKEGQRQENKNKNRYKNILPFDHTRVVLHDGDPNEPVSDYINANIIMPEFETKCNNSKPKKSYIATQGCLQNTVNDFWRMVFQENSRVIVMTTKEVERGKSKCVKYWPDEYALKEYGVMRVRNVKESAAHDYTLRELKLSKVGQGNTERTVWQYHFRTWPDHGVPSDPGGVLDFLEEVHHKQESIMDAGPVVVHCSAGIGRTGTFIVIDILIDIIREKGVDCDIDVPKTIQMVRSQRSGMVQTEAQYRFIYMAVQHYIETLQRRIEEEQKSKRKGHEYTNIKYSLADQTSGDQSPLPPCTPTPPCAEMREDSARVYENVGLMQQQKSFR

On to `C[C@@H]1OCC2(CCN(c3ncc(Sc4cccc(F)c4Cl)[nH]c3=O)CC2)[C@@H]1N` [Compound 109, 3-((3S,4S)-4-amino-3-methyl-2-oxa-8-azaspiro[4.5]decan-8-yl)-6-((2-chloro-3-fluorophenyl)thio)pyrazin-2(1H)-one], for which the IC50 is less than 5000 nM in the experiment with cells, less than 100 nM in the experiment with p-ERK/total ERK and no more than 50 nM against Full length SHP2 enzyme.
